Here are results for five compounds from patent publication US20050107959A1, “Screening method for evaluation of bilayer-drug interaction in liposomal compositions” (priority 2003, published 2005).

A short description of the series: Differential scanning calorimetry (VP-DSC) of DSPC liposomes (MLVs) with drugs. The class given is physicochemical. Also on record: ΔHcal / ΔHvH / ΔHv: unit not given here. The note with it: for Interaction of the drug with the lipid bilayer (thermogram deviation from DSPC control): FIGS. 1A-1D, pH 3.6, DSPC/drug mixture vs DSPC control; for ΔHcal: calorimetric phase transition enthalpy; for ΔHcal / Cpmax / ΔTm½ / ΔT½: drug-to-lipid 1:5; for CU: cooperativity unit = ΔHvH/ΔHcal; for Tm: drug-to-lipid mole ratio 1:5; for Cpmax: heat capacity at phase transition peak; for ΔTm½ / ΔT½: transition peak width at half-height; for ΔHvH / ΔHv: van't Hoff's enthalpy calculated from DSC measurements; for Coop: cooperativity calculated from DSC measurements. The source says:
Differential scanning calorimetry (DSC) is a method known in the art used to measure the amount of energy (as heat) absorbed or released by a sample as it is heated, cooled, or held at a constant temperature. As used herein, the term “DSC measurements” further includes calculations using a measured feature of the sample. An exemplary method of measuring DSC utilizes a differential scanning calorimeter. Any calorimeter is suitable as long as the temperature range of the calorimeter is appropriate for the sample measurements. An exemplary calorimeter is the VP-DSC differential scanning calorimeter available from MicroCal (Northampton, Mass., USA). Typical applications using the differential scanning calorimeter include determination of melting point temperature and/or the heat of melting, measurement of the glass transition temperature, curing and crystallization studies, and identification of phase transformations.
In the embodiment using a differential scanning calorimeter for measuring the thermodynamic properties of a lipid suspension, the heat flow into a sample is usually contained in a sample cell and measured differentially, i.e. by comparing the heat flow of the sample to the heat flow into an reference cell containing an equal volume of water or the aqueous component of the sample. The heat flow may be considered as the amount of heat (q) supplied per unit of time (t), or q/t. Typically, both cells sit inside a metal jacket with a known (calibrated) heat resistance (K). The temperature of the calorimeter is raised linearly with time (scanned), where the heating rate (β=dT/dt) of the cells are kept constant and consistent with each other. […] The temperature may be controlled manually or automatically. […] Heat flows into the two cells by conduction from a heat source such as a radiator. The heat flow into the sample cell is larger due to the additional heat capacity (Cp) of the sample during the course of the phase transition. Heat capacity refers to the heat flow divided by the heating rate or Cp=q/ΔT, where q is heat, and ΔT is temperature increase. The difference in heat flow (dq/dt) induces a temperature difference (dT) between the sample and the reference cells. This temperature difference is measured using any appropriate sensor, such as a thermocouple, and a signal is generated representative of the difference.
In this figure, in a heating scan, an endothermic event results in a positive (upward) deviation from the baseline. […] The melting temperature is seen on the heat flow plot as a peak as heat is absorbed by the sample until the phase transition is completed. As will be appreciated by those of skill in the art, the main phase transition extends over a temperature range, although this peak is typically very sharp for most vesicle-forming lipids, such as DSPC, the Tm can be reported as the onset of the transition, as the midpoint of the transition, the peak temperature, or any suitable point as long as the parameters are defined. […] It will be appreciated that the exact percent of phase transition is not important as long as it is defined. Where a ratio is used, it is desirable to use the same ratio for each sample to aid in comparison between the samples. In the studies reported herein, the Tm is reported as the maximum peak of the transition range.
The latent heat of melting, or the calorimetric phase transition enthalpy, (ΔHcal) can be determined by first determining the area (A) under the peak according to the following formula: A=(heat in calories)(temperature in Kelvin)/(time in seconds)(mass in moles).

Where [1] appears, read: pH 3.6, scan 20° C./hour, maximum peak of main phase transition.

As to `CC[C@]1(O)C[C@H]2CN(CCc3c([nH]c4ccccc34)[C@@](C(=O)OC)(c3cc4c(cc3OC)N(C=O)[C@H]3[C@@](O)(C(=O)OC)[C@H](OC(C)=O)[C@]5(CC)C=CCN6CC[C@]43[C@@H]65)C2)C1` [vincristine], the “Interaction of the drug with the lipid bilayer (thermogram deviation from DSPC control)” value is given as “some interaction”. Moreover, for the setting “pH 3.6”, the ΔHcal stood at 12.77, the CU is 37.2, the Tm was 54.7 °C and the Cpmax is given as 7.1. Further, for the setting “pH 3.6”, the ΔTm½ was found to be 1.42 °C and the ΔHvH is reported as 474.9. Under setting [1], the Tm was 54.6 °C. Further, where the note is “pH 7.0”, the ΔHcal turned out to be 11.65, the Coop is 43, the Tm was determined as 53.93 °C and the Cpmax is 6.81. Moreover, for the setting “pH 7.0”, the ΔT½ was determined as 1.38 °C and the ΔHv is on record as 496. Also, the Tm (pH 7.0, scan 20° C./hour) is 53.93 C.

As for `CC[C@@]1(O)C(=O)OCc2c1cc1n(c2=O)Cc2c-1nc1ccccc1c2CCNC(C)C` [CKD602], the “Interaction of the drug with the lipid bilayer (thermogram deviation from DSPC control)” value was “some interaction”. Moreover, under “pH 3.6”, the ΔHcal was 11.81, the CU worked out at 45.9, the Tm came to 54.7 °C and the Cpmax is 7.5. Where the note is “pH 3.6”, the ΔTm½ is 1.27 °C and the ΔHvH is given as 542.3. The Tm under setting [1] came out at 54.6 °C. Further, where the note is “pH 7.0”, the ΔHcal is recorded as 11.2, the Coop is given as 117, the Tm worked out at 54.43 °C and the Cpmax was determined as 17.2. In addition, under “pH 7.0”, the ΔT½ was determined as 0.42 °C and the ΔHv is on record as 1308. In addition, under “pH 7.0, scan 20° C./hour”, the Tm was 54.43 C.

Turning to `O=C(O)c1cn(C2CC2)c2cc(N3CCNCC3)c(F)cc2c1=O` [ciprofloxacin], under “pH 3.6”, the ΔHcal was found to be 9.98, the CU turned out to be 38.6, the Tm came to 55 °C and the Cpmax was 4.5. Moreover, for the setting “pH 3.6”, the ΔHvH is given as 385.6. For the same compound, the Tm under setting [1] is 54.9 °C.

As for `COc1cccc2c1C(=O)c1c(O)c3c(c(O)c1C2=O)C[C@@](O)(C(=O)CO)C[C@@H]3O[C@H]1C[C@H](N)[C@H](O)[C@H](C)O1` [doxorubicin], the “Interaction of the drug with the lipid bilayer (thermogram deviation from DSPC control)” value was “weak interaction”. Further, where the note is “pH 3.6”, the ΔHcal is 9.28, the CU is on record as 73.3, the Tm turned out to be 54.6 °C and the Cpmax turned out to be 7.4. In addition, under “pH 3.6”, the ΔTm½ was found to be 0.94 °C and the ΔHvH is recorded as 680.5. Besides, under setting [1], the Tm came to 54.5 °C. Under “pH 7.0”, the ΔHcal was 9.66, the Coop is given as 149, the Tm turned out to be 54.5 °C and the Cpmax is reported as 16.3. Besides, under “pH 7.0”, the ΔT½ worked out at 0.4 °C and the ΔHv is given as 1437. In addition, the Tm (pH 7.0, scan 20° C./hour) is reported as 54.45 C.

On to `CC(=O)O[C@H]1C(=O)[C@@]2(C)[C@H]([C@H](OC(=O)c3ccccc3)[C@]3(O)C[C@H](OC(=O)[C@H](O)[C@@H](NC(=O)c4ccccc4)c4ccccc4)C(C)=C1C3(C)C)[C@]1(OC(C)=O)CO[C@@H]1C[C@@H]2O` [paclitaxel], for which the “Interaction of the drug with the lipid bilayer (thermogram deviation from DSPC control)” value is listed as “significant interaction”. Moreover, for the setting “pH 3.6”, the ΔHcal is listed as 10.6, the CU is on record as 26.6, the Tm turned out to be 54.5 °C and the Cpmax was 3.5. Under “pH 3.6”, the ΔTm½ was determined as 2.27 °C and the ΔHvH is on record as 281.7. Moreover, the Tm under setting [1] came to 54.5 °C. Under “pH 7.0”, the ΔHcal was determined as 9.94, the Coop was 75, the Tm worked out at 54.07 °C and the Cpmax came to 8.67. In addition, where the note is “pH 7.0”, the ΔT½ came out at 0.77 °C and the ΔHv is 741. For the setting “pH 7.0, scan 20° C./hour”, the Tm turned out to be 54.07 C.
